Experiments:
rat hepatocyte cells = assay: 14C-acetate incorporation into saponified and non-saponified lipids in hepatocytes; type: cell-based; conditions: 30 μM; 14C-acetate labeling 4 hr; relative to vehicle control
Method: Washout buffer containing; 149 mM sodium chloride, 9.2 mM sodium N-2-hyroxyethylpiperazine-N′-2-ethanesulfonic acid, 1.7 mM fructose, 0.5 mM EGTA, 10 U/mL heparin at pH 7.5 and digestion buffer containing; 6.7 mM potassium chloride, 143 mM sodium chloride, 9.2 mM sodium N-2-hyroxyethylpiperazine-N′-2-ethanesulfonic acid, 5 mM calcium chloride-dihydrate, 1.7 mM fructose, 0.2% bovine serum albumin, 100 U/mL collagenase Type I, 93 U/mL Hyaluronidase, 160 BAEE/mL trypsin inhibitor at pH 7.5 were prepared. Solutions were oxygenate prior to perfusion. Wash buffer containing Dulbecco's Modified Eagle Medium (DMEM) containing 4.5 gm/L D-glucose, 2 mM GlutMax-1, 0.2% BSA, 5% fetal bovine serum (FBS), […], 1.2 μM hydrocortisone and DMEM+HS solution containing DMEM, 2 mM GlutMax-1, 20 nM delta-antinolevulinic acid, 17.4mM MEM non-essential amino acids, 20% FBS, 12 nM insulin and 1.2 μM hydrocortisone was prepared. DMEM solution containing DMEM, 2 mM GlutMax-1, 20 nM delta-aminolevulinic acid and 17.4 mM MEM non-essential amino acids were prepared. Male Sprague-Dawley rats weighing 125-250 gms were maintained on a standard rodent chow diet and freely given water. On the evening prior to cell isolation, selected healthy animals were fed restricted. […] The cell concentration was determined in several fields on the hemocytometer. […]

obese female Zucker rats = assay: Two weeks of daily oral gavage treatment in chow-fed obese female Zucker rats; type: in vivo, rat; conditions: 100 mg/kg daily oral gavage; for ratio of HDL/non-HDL cholesterol: pretreatment 2.70; for increase of total serum cholesterol: vs pretreatment
Method: Dosing vehicle of Compound A (100 mg/kg) was administered to 9-10 week old female obese Zucker rats (i.e. the fa/fa or leptin receptor deficient rat) daily for 14 days in the morning by oral gavage in 1.5 percent carboxymethylcellulose/0.2 percent […]. Tail vein blood for glucose determinations (without anesthesia) and orbital blood samples for serum (with anestehesia for all other determinations) were obtained following a 6 hour fast prior to the initial dose and after one and two weeks of dosing.
Blood serum were assayed for insulin, non-esterified fatty acids, […], total cholesterol, and triglycerides (FIG. 2). Glucose was determined in whole blood (Table 1). Blood serum was also used to produce lipoprotein cholesterol profiles (FIG. 2), and used to determine VLDL plus LDL cholesterol combined (also referred to as apoB containing lipoprotein cholesterol or non-HDL cholesterol), HDL cholesterol, and the ratio of HDL cholesterol to that of VLDL plus LDL cholesterol (FIG. 2). In addition, the effect of Compound A on weight gain after 14 days and the liver to body weight ratio at sacrifice are shown in FIG. 2.

Question: For `CC(C)(CO)CCCC[S+]([O-])CCCCC(C)(C)CO` [Compound A, 6-(5,5-Dimethyl-6-hydroxy-hexane-1-sulfinyl)-2,2-dimethyl-hexan-1-ol], which “reduction of rate of non-saponifiable lipid synthesis” value (rat hepatocyte cells) is on record?
Answer: The value was 54%.

Question: What about the “reduction of rate of saponifiable lipid synthesis” value (rat hepatocyte cells) of the same compound?
Answer: Its value is 25%.

Question: What about the “blood glucose levels, pretreatment versus posttreatment” value (obese female Zucker rats; after one and two weeks, 6 hour fast) of the same compound?
Answer: The value was “similar”.

Question: And the “increase in HDL cholesterol” value (obese female Zucker rats; after one week of treatment)?
Answer: Its value is 2.2 fold.

Question: And the “increase of non-HDL cholesterol (VLDL plus LDL cholesterol)” value (obese female Zucker rats; after one week of treatment)?
Answer: The value was 38%.

Question: And the “reduction of serum triglycerides” value (obese female Zucker rats; after one week of treatment)?
Answer: The value was 48%.

Question: And the “ratio of HDL/non-HDL cholesterol” value (obese female Zucker rats; after one week of treatment)?
Answer: Its value is 3.84.

Question: And the “increase of total serum cholesterol” value (obese female Zucker rats; after one week of treatment)?
Answer: Its value is 98%.

Question: What about the “increase in HDL cholesterol” value (obese female Zucker rats; after two weeks of treatment) of the same compound?
Answer: Its value is 3.1 fold.

Question: What about the “increase of non-HDL cholesterol (VLDL plus LDL cholesterol)” value (obese female Zucker rats; after two weeks of treatment) of the same compound?
Answer: The value was 62%.

Question: And the “reduction of serum triglycerides” value (obese female Zucker rats; after two weeks of treatment)?
Answer: The value was 42%.

Question: What about the “ratio of HDL/non-HDL cholesterol” value (obese female Zucker rats; after two weeks of treatment) of the same compound?
Answer: The value was 4.97.

Question: What about the “increase of total serum cholesterol” value (obese female Zucker rats; after two weeks of treatment) of the same compound?
Answer: The value was 74%.

Question: And the “serum β-hydroxy butyrate” value (obese female Zucker rats; after two weeks, elevated from 2.35 pretreatment)?
Answer: Its value is 3.94 mg/dL.

Question: What about the “serum non-esterified fatty acids” value (obese female Zucker rats; after two weeks, reduced from 2.28 pretreatment) of the same compound?
Answer: Its value is 0.74 mmol/L.

— patent US6673780B2, “Sulfoxide and bis-sulfoxide compounds and compositions for cholesterol management and related uses” (Esperion Therapeutics, Inc., priority 2000, dated 2004)
